Measured values: ChEMBL document CHEMBL1147531, “Farnesyloxycoumarins, a new class of squalene-hopene cyclase inhibitors” (Bioorg Med Chem Lett, 2004)

Legend:
Squalene--hopene cyclase [1] = biological target: T1, Squalene--hopene cyclase (Alicyclobacillus acidocaldarius subsp. acidocaldarius (strain ATCC27009 / DSM 446 / 104-1A) (Bacillus acidocaldarius), UniProt P33247); experiment: Inhibitory activity against squalene hopene cyclase from Alicyclobacillus acidocaldarius expressed in Escherichia coli
T1 sequence (P33247 whole entry): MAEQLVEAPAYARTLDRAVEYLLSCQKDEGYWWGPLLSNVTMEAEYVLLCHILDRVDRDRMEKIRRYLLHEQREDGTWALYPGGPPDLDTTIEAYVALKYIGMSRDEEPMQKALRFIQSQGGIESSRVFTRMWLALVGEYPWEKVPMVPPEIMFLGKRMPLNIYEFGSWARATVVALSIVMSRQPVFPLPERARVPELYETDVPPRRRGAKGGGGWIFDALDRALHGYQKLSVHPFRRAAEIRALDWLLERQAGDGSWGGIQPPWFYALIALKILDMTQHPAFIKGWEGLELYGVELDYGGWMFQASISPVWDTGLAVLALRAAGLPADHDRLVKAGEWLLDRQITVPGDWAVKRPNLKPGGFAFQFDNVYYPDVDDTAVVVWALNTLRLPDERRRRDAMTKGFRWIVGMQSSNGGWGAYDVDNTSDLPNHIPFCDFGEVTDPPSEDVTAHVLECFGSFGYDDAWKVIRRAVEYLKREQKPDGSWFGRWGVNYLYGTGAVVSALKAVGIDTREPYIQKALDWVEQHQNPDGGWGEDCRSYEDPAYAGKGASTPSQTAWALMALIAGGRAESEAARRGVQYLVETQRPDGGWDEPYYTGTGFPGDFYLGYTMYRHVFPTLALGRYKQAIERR

Squalene--hopene cyclase [2] = biological target: T1, Squalene--hopene cyclase; experiment: Inhibitory activity against squalene hopene cyclase from Alicyclobacillus acidocaldarius expressed in Escherichia coli at a concentration of 100 uM; n.a. = not active
[3] = biological target: T2, Squalene--hopene cyclase (Alicyclobacillus acidocaldarius subsp. acidocaldarius (strain ATCC27009 / DSM 446 / 104-1A) (Bacillus acidocaldarius)) (UniProt P33247); experiment: IInhibitory activity against squalene hopene cyclase from Alicyclobacillus acidocaldarius expressed in Escherichia coli at a concentration of 100 uM
T2 sequence (whole entry): T1 sequence (P33247 whole entry)

[4] = biological target: T2, Squalene--hopene cyclase (Alicyclobacillus acidocaldarius subsp. acidocaldarius (strain ATCC27009 / DSM 446 / 104-1A) (Bacillus acidocaldarius)); experiment: Inhibitory activity against squalene hopene cyclase from Alicyclobacillus acidocaldarius expressed in Escherichia coli at a concentration of 100 uM

| Structure (SMILES) | IC50 (Squalene--hopene cyclase [1]) [µM] | IC50 (Squalene--hopene cyclase [2]) | further results |
| --- | --- | --- | --- |
| C/C(=C\COc1ccc2ccc(=O)oc2c1)CCC1OC1(C)CCC1OC1(C)C (centres undefined) | 1.5 |  |  |
| C=C1CC[C@@H]2C(C)(C)C(=O)CC[C@@]2(C)[C@@H]1COc1ccc2ccc(=O)oc2c1 |  | Not Active |  |
| CC(=O)Oc1ccc2c(OC(C)=O)c(C/C=C(\C)CCC3OC3(C)CCC3OC3(C)C)c(=O)oc2c1 (centres undefined) |  |  | inhibition [3]: 38% |
| C/C(=C\COc1ccc2ccc(=O)oc2c1)CC[C@H]1C2(C)CC[C@@H](O2)C1(C)C (single isomer, unassigned) [FARNESIFEROL C] | 7 |  |  |
| C/C(=C\COc1cc(=O)oc2ccccc12)CC/C=C(\C)CCC1OC1(C)C (centres undefined) |  |  | inhibition [4]: 40% |
| CC1(C)C(=O)CC[C@]2(C)[C@@H]1CC[C@](C)(O)[C@H]2COc1ccc2ccc(=O)oc2c1 |  | Not Active |  |
| CC(=O)O[C@H]1CC[C@]2(C)[C@H](CC[C@](C)(O)[C@H]2COc2ccc3ccc(=O)oc3c2)C1(C)C |  | Not Active |  |
| CC(C)=CCC/C(C)=C/CC/C(C)=C/Cc1c(O)c2ccccc2oc1=O | 90 |  |  |
| CC1(C)[C@H]2CC[C@](C)(O)[C@@H](COc3ccc4ccc(=O)oc4c3)[C@]2(C)CC[C@@H]1O |  | Not Active |  |
| C=C1CC[C@@H]2C(C)(C)[C@H](O)CC[C@@]2(C)[C@@H]1COc1ccc2ccc(=O)oc2c1 |  | Not Active |  |
| CC(=O)Oc1cc2ccc(=O)oc2cc1OC/C=C(\C)CCC1OC1(C)CCC1OC1(C)C (centres undefined) |  |  | inhibition [4]: 7% |
| C/C(=C\COc1ccc2ccc(=O)oc2c1)CC/C=C(\C)CCC1OC1(C)C (centres undefined) | 2.5 |  |  |
| CC(=O)Oc1cc2ccc(=O)oc2cc1OC/C=C(\C)CC/C=C(\C)CCC1OC1(C)C (centres undefined) |  |  | inhibition [4]: 46% |

More lines, main results first:

| IC50 (Squalene--hopene cyclase [1]) [µM] | IC50 (Squalene--hopene cyclase [2]) | Structure (SMILES) | further results |
| --- | --- | --- | --- |
| 67 |  | C/C(=C\COc1cc2oc(=O)ccc2cc1O)CC/C=C(\C)CCC1OC1(C)C (centres undefined) |  |
| 100 |  | CC(=O)Oc1ccc2c(OC(C)=O)c(C/C=C(\C)CC/C=C(\C)CCC3OC3(C)C)c(=O)oc2c1 (centres undefined) |  |
|  | Not Active | CC(C)=CCC/C(C)=C/CC/C(C)=C/Cc1c(O)oc2cc(O)ccc2c1=O |  |
|  | Not Active | CC(C)=CCC/C(C)=C/CC/C(C)=C/COc1cc(=O)oc2ccccc12 |  |
| 65 |  | C/C(=C\COc1ccc2ccc(=O)oc2c1)CC/C=C(\C)CCC(O)C(C)(C)O (centres undefined) |  |
| 70 |  | CC(C)=CCC/C(C)=C/CC/C(C)=C/COc1ccc2ccc(=O)oc2c1 [UMBELLIPRENIN] |  |
